Measured values taken from patent US9382197B2, “Substituted hydroxamic acids and uses thereof” (Millennium Pharmaceuticals, Inc., priority 2010, dated 2016).

Target: T1, purified human HDAC6 (Homo sapiens, UniProt Q9UBN7)
T1 construct: purchased BPS Bioscience 5006
T1 sequence (Q9UBN7 1-1215): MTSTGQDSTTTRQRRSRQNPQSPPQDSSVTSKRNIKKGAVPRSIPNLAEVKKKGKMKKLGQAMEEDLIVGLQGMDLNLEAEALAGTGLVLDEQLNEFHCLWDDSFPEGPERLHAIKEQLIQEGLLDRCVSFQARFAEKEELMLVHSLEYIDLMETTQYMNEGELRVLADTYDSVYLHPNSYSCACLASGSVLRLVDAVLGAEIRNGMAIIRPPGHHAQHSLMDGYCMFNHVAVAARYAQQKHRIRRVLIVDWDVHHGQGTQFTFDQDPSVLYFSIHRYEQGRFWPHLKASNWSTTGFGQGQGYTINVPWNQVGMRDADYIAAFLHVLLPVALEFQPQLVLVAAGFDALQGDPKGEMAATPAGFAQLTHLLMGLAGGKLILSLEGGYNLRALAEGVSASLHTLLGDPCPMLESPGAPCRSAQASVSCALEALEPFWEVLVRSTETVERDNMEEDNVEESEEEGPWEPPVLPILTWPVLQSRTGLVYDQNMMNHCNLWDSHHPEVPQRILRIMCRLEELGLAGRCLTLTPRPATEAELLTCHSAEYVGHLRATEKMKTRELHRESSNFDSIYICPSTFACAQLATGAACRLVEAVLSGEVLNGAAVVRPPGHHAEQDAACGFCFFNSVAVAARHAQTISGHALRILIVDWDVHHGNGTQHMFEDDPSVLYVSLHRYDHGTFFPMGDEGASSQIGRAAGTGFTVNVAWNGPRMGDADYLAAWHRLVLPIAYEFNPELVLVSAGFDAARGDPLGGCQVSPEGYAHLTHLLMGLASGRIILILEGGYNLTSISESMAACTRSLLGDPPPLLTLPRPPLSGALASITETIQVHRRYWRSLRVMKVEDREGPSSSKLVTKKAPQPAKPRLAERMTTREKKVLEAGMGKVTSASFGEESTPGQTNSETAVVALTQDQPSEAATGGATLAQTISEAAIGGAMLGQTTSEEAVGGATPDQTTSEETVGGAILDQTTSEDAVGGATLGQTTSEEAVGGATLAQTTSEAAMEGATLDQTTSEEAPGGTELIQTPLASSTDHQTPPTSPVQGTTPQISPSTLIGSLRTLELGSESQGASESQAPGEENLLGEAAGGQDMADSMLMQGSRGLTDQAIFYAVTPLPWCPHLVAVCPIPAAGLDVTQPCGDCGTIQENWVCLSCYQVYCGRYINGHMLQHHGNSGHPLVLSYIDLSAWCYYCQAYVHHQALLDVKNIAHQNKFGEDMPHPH
Test: HDAC6 Enzyme Assay
Type: biochemical
Summary of the method: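 Purified human HDAC6 incubated 1 h at 30 °C with Ac-Arg-Gly-Lys(Ac)-AMC and compound; trichostatin A stop, trypsin release of AMC, fluorescence Ex 340/Em 460 nm. IC50 from concentration–response relative to DMSO.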

[1] = bin: greater than 500 nM and less than 1 μM (lower bound in nM, upper bound in μM)
[2] = purified human HDAC6, substrate Ac-Arg-Gly-Lys(Ac)-AMC, 1 hour at 30° C., reported as bins

Structure (SMILES)	IC50 [2]	also measured
CC(C)C(NC(=O)Cc1cc(C(F)(F)F)cc(C(F)(F)F)c1)c1ccc(C(=O)NO)cc1 (stereo not shown) [Compound I-250, 4-[1-({[3,5-bis(trifluoromethyl)phenyl]acetyl}amino)-2-methylpropyl]-N-hydroxybenzamide]		IC50 (bin: greater than 1 μM): > 1000 nM
CC(C)(C)C(NC(=O)c1cc(F)cc(F)c1)c1ccc(C(=O)NO)cc1 (stereo not shown) [Compound I-251, 3,5-difluoro-N-(1-{4-[(hydroxyamino)carbonyl]phenyl}-2,2-dimethylpropyl)benzamide]		IC50 [1]: 500 to 1000 nM
Cc1cc(C(=O)NC(c2ccc(C(=O)NO)cc2)C(C)C)c(C)o1 (stereo not shown) [Compound I-252, N-(1-{4-[(hydroxyamino)carbonyl]phenyl}-2-methylpropyl)-2,5-dimethyl-3-furamide]	100 to 500 nM	
COc1ccc(C)cc1NC(=O)NC(C)c1ccc(C(=O)NO)cc1 (stereo not shown) [Compound I-253, N-hydroxy-4-[1-({[(2-methoxy-5-methylphenyl)amino]carbonyl}amino)ethyl]benzamide]	< 100 nM	
CC(C)C(NC(=O)C1CCCC1)c1ccc(C(=O)NO)cc1 (stereo not shown) [Compound I-255, 4-{1-[(cyclopentylcarbonyl)amino]-2-methylpropyl}-N-hydroxybenzamide]	100 to 500 nM	
Cc1c(C(=O)NC(C)c2cccc(C(=O)NO)c2)cnn1-c1ccccc1 (stereo not shown) [Compound I-257, N-(1-{3-[(hydroxyamino)carbonyl]phenyl}ethyl)-5-methyl-1-phenyl-1H-pyrazole-4-carboxamide]		IC50 (bin: greater than 1 μM): > 1000 nM
CC(C)C(NC(=O)C1(c2ccccc2)CCCC1)c1ccc(C(=O)NO)cc1 (stereo not shown) [Compound I-258, N-hydroxy-4-(2-methyl-1-{[(1-phenylcyclopentyl)carbonyl]amino}propyl)benzamide]	100 to 500 nM	
O=C(NO)c1ccc([C@@H](NC(=O)C23CC4CC(CC(C4)C2)C3)c2ccccc2)cc1 [Compound I-259, N-[(S)-{4-[(hydroxyamino)carbonyl]phenyl}(phenyl)methyl]adamantane-1-carboxamide]		IC50 [1]: 500 to 1000 nM
Cc1cc(C(=O)NC(c2ccc(C(=O)NO)cc2)C(C)(C)C)nn1C (stereo not shown) [Compound I-260, N-(1-{4-[(hydroxyamino)carbonyl]phenyl}-2,2-dimethylpropyl)-1,5-dimethyl-1H-pyrazole-3-carboxamide]	100 to 500 nM	
CC(NC(=O)Nc1c(F)cccc1F)c1ccc(C(=O)NO)cc1 (stereo not shown) [Compound I-261, 4-[1-({[(2,6-difluorophenyl)amino]carbonyl}amino)ethyl]-N-hydroxybenzamide]	< 100 nM	
Cc1cc(C)c(C(=O)NC(c2ccc(C(=O)NO)cc2)C(C)(C)C)[nH]1 (stereo not shown) [Compound I-262, N-(1-{4-[(hydroxyamino)carbonyl]phenyl}-2,2-dimethylpropyl)-3,5-dimethyl-1H-pyrrole-2-carboxamide]	100 to 500 nM	
CC(NC(=O)c1cccn1C)c1cccc(C(=O)NO)c1 (stereo not shown) [Compound I-263, N-(1-{3-[(hydroxyamino)carbonyl]phenyl}ethyl)-1-methyl-1H-pyrrole-2-carboxamide]		IC50 (bin: greater than 1 μM): > 1000 nM
Cc1ccc(C2(C(=O)NC(C)c3ccc(C(=O)NO)cc3)CC2)cc1 (stereo not shown) [Compound I-264, N-hydroxy-4-[1-({[1-(4-methylphenyl)cyclopropyl]carbonyl}amino)ethyl]benzamide]	< 100 nM	
CC(C)(C)C(NC(=O)C1CCCCC1)c1ccc(C(=O)NO)cc1 (stereo not shown) [Compound I-265, 4-{1-[(cyclohexylcarbonyl)amino]-2,2-dimethylpropyl}-N-hydroxybenzamide]		IC50 (bin: greater than 1 μM): > 1000 nM
Cc1ccc(S(=O)(=O)NC(C)c2ccc(C(=O)NO)cc2)cc1 (stereo not shown) [Compound I-266, N-hydroxy-4-(1-{[(4-methylphenyl)sulfonyl]amino}ethyl)benzamide]	100 to 500 nM	
CC(NC(=O)c1cccs1)c1cccc(C(=O)NO)c1 (stereo not shown) [Compound I-267, N-(1-{3-[(hydroxyamino)carbonyl]phenyl}ethyl)thiophene-2-carboxamide]	100 to 500 nM	

Structure (SMILES)	IC50 [2]	also measured
CC(NC(=O)c1ccc(C(C)(C)C)cc1)c1cccc(C(=O)NO)c1 (stereo not shown) [Compound I-268, 3-{1-[(4-tert-butylbenzoyl)amino]ethyl}-N-hydroxybenzamide]		IC50 [1]: 500 to 1000 nM
CC(NC(=O)c1ccccc1Cl)c1ccc(C(=O)NO)cc1 (stereo not shown) [Compound I-269, 2-chloro-N-(1-{4-[(hydroxyamino)carbonyl]phenyl}ethyl)benzamide]	< 100 nM	
CC(C)(C)C(NC(=O)c1cc2cc(Cl)ccc2o1)c1ccc(C(=O)NO)cc1 (stereo not shown) [Compound I-270, 5-chloro-N-(1-{4-[(hydroxyamino)carbonyl]phenyl}-2,2-dimethylpropyl)-1-benzofuran-2-carboxamide]	100 to 500 nM	
C[C@@H](NC(=O)c1cccn1C)c1cccc(C(=O)NO)c1 [Compound I-271, N-((1R)-1-{3-[(hydroxyamino)carbonyl]phenyl}ethyl)-1-methyl-1H-pyrrole-2-carboxamide]		IC50 [1]: 500 to 1000 nM
CC(NS(=O)(=O)c1ccc2nsnc2c1)c1ccc(C(=O)NO)cc1 (stereo not shown) [Compound I-272, 4-{1-[(2,1,3-benzothiadiazol-5-ylsulfonyl)amino]ethyl}-N-hydroxybenzamide]		IC50 [1]: 500 to 1000 nM
C[C@H](NC(=O)C1(C)CCCCC1)c1ccc(C(=O)NO)cc1 [Compound I-273, N-hydroxy-4-((1S)-1-{[(1-methylcyclohexyl)carbonyl]amino}ethyl)benzamide]		IC50 [1]: 500 to 1000 nM
CCC[C@@H](NC(=O)c1ccc(-c2ccccc2)cc1)c1ccc(C(=O)NO)cc1 [Compound I-274, N-((1R)-1-{4-[(hydroxyamino)carbonyl]phenyl}butyl)biphenyl-4-carboxamide]	< 100 nM	
CC(NC(=O)Nc1ccc(F)c(F)c1)c1ccc(C(=O)NO)cc1 (stereo not shown) [Compound I-275, 4-[1-({[(3,4-difluorophenyl)amino]carbonyl}amino)ethyl]-N-hydroxybenzamide]	< 100 nM	
Cc1ccc(CNC(=O)NC(C)c2ccc(C(=O)NO)cc2)cc1 (stereo not shown) [Compound I-277, N-hydroxy-4-[1-({[(4-methylbenzyl)amino]carbonyl}amino)ethyl]benzamide]	100 to 500 nM	
Cc1nc(C(=O)NC(C)c2ccc(C(=O)NO)cc2)cs1 (stereo not shown) [Compound I-278, N-(1-{4-[(hydroxyamino)carbonyl]phenyl}ethyl)-2-methyl-1,3-thiazole-4-carboxamide]	< 100 nM	
CC(C)[C@H](NC(=O)c1cc2ccccc2[nH]1)c1ccc(C(=O)NO)cc1 [Compound I-279, N-((1S)-1-{4-[(hydroxyamino)carbonyl]phenyl}-2-methylpropyl)-1H-indole-2-carboxamide]	100 to 500 nM	
CC(NC(=O)Cc1ccc2c(c1)OCO2)c1ccc(C(=O)NO)cc1 (stereo not shown) [Compound I-280, 4-{1-[(1,3-benzodioxol-5-ylacetyl)amino]ethyl}-N-hydroxybenzamide]		IC50 (bin: greater than 1 μM): > 1000 nM
CCC[C@@H](NC(=O)c1cccn1C)c1ccc(C(=O)NO)cc1 [Compound I-281, N-((1R)-1-{4-[(hydroxyamino)carbonyl]phenyl}butyl)-1-methyl-1H-pyrrole-2-carboxamide]	< 100 nM	
CC(=O)Nc1cc(NC(C)=O)cc(C(=O)NC(c2ccc(C(=O)NO)cc2)C(C)C)c1 (stereo not shown) [Compound I-282, 3,5-bis(acetylamino)-N-(1-{4-[(hydroxyamino)carbonyl]phenyl}-2-methylpropyl)benzamide]	< 100 nM	
C[C@@H](NC(=O)C1(C)CCCCC1)c1cccc(C(=O)NO)c1 [Compound I-283, N-hydroxy-3-((1R)-1-{[(1-methylcyclohexyl)carbonyl]amino}ethyl)benzamide]		IC50 (bin: greater than 1 μM): > 1000 nM
